Among the test systems are UACC-257 melanoma; UACC-62 melanoma; CCRF-CEM leukemia; MOLT-4 leukemia; ACHN renal; K-562 leukemia; HS 578T breast; MCF7 breast; DU-145 prostate.
Holding throughout (assay): NCI anticancer screen, dose series, 48 h

The results in this text go back to PubChem BioAssay (NCI).

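Each compound was tested at five concentrations against cells in 96-well plates for 48 hours. GI50 is the concentration that inhibits growth by half. TGI denotes the concentration required for complete inhibition of growth.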

For `C/C(=N\NC(N)=O)c1sc(-c2nc(C)c(/C(C)=N/NC(N)=O)s2)nc1C`, the TGI in the assay on UACC-257 melanoma, with UACC-62 melanoma, with CCRF-CEM leukemia, in the assay with MOLT-4 leukemia, with ACHN renal and with K-562 leukemia was above 100 µM throughout.
`CC12c3ccccc3C(OC=O)(c3ccccc31)C1(C)c3ccccc3C2(OC=O)c2ccccc21`: the TGI was above 100 µM in the assay with UACC-257 melanoma; above 100 µM in the assay with UACC-62 melanoma; 89.1 µM in the assay with CCRF-CEM leukemia; 68.5 µM in the assay with MOLT-4 leukemia; above 100 µM in the assay with ACHN renal; above 100 µM in the assay with K-562 leukemia.
For `CC1=C(C(=O)Nc2ccccc2)C(c2ccc(Cl)c(Cl)c2)C(C(=O)Nc2ccccc2)=C(C)N1`, the TGI in the assay with UACC-257 melanoma came out at 26.5 µM; with UACC-62 melanoma it was 22.6 µM; with CCRF-CEM leukemia, 71.4 µM; with MOLT-4 leukemia it was 3.04 µM; in the assay with ACHN renal, 24.9 µM.
In the case of `CC(C)C1CN(C(=O)OCc2ccccc2)C2N1C(=O)C2(C)OCc1ccccc1` (stereo unspecified), the TGI was 96.9 µM with UACC-257 melanoma; above 100 µM in the assay with UACC-62 melanoma; above 100 µM in the assay with CCRF-CEM leukemia; 84 µM in the assay on MOLT-4 leukemia; above 100 µM in the assay on ACHN renal; above 100 µM with K-562 leukemia.
As to `CCCCCCCCCCCC[N+]12CC[N+](CCN)(CC1)CC2`, the TGI in the assay with UACC-257 melanoma, in the assay on UACC-62 melanoma, in the assay on CCRF-CEM leukemia, in the assay on MOLT-4 leukemia, in the assay on ACHN renal and in the assay with K-562 leukemia was above 100 µM throughout.
For `CC[C@]1(O)C[C@H]2CN(CCc3c([nH]c4ccccc34)C(C(=O)OC)(c3cc4c(cc3OC)N(C)[C@H]3[C@@](O)(C(=O)OC)[C@H](OC(C)=O)[C@]5(CC)[C@@H]6C[C@@H]6CN6CC[C@]43[C@@H]65)C2)C1` (stereo partly specified), the GI50 was 0.00509 µM with UACC-257 melanoma; 0.00331 µM in the assay with HS 578T breast; 0.0022 µM in the assay with UACC-62 melanoma; 0.00456 µM in the assay with CCRF-CEM leukemia; 0.0074 µM in the assay on MOLT-4 leukemia; 0.012 µM in the assay with ACHN renal. The GI50 in the assay on MCF7 breast is 0.0019 µM; with DU-145 prostate, below 0.00143 µM; with K-562 leukemia it was 0.00266 µM. Besides, the TGI was above 8.64 µM in the assay with UACC-257 melanoma; above 14.3 µM with UACC-62 melanoma; above 12.9 µM with CCRF-CEM leukemia; 5.43 µM in the assay on MOLT-4 leukemia; above 14.3 µM in the assay on ACHN renal; above 14.3 µM in the assay on MCF7 breast. For the same compound, the TGI is above 14.3 µM in the assay on DU-145 prostate and 2.82 µM in the assay on K-562 leukemia.
On to `CCN(CCNS(C)(=O)=O)c1ccc(N)c(C)c1`, for which the GI50 with UACC-257 melanoma was 13.4 µM; with HS 578T breast it was 32.9 µM; with CCRF-CEM leukemia, 2.29 µM; in the assay on MOLT-4 leukemia, 23.1 µM; with ACHN renal it was 2.09 µM; in the assay with MCF7 breast it was 4.3 µM. For the same compound, the GI50 is 10.8 µM in the assay on DU-145 prostate and 3.39 µM with K-562 leukemia. In addition, the TGI with UACC-257 melanoma was 27.1 µM; in the assay on HS 578T breast it was above 100 µM; in the assay with CCRF-CEM leukemia it was 7.29 µM; with MOLT-4 leukemia, 59.6 µM; in the assay with ACHN renal, 4.9 µM; in the assay on MCF7 breast, 27.2 µM. Further, the results for the TGI with DU-145 prostate and in the assay on K-562 leukemia were 22.8 µM and 18.4 µM, respectively.
As for `O=c1[nH]c(=O)n(C2CC(O)C(CO)O2)cc1OS(=O)(=O)C(F)(F)F` (stereo unspecified), the TGI in the assay with UACC-62 melanoma, with CCRF-CEM leukemia, with MOLT-4 leukemia, in the assay with ACHN renal and in the assay on K-562 leukemia was above 100 µM each time.
Take `O=C1c2cccc3cccc(c23)C(=O)N1CCN(CCO)CCO`: the TGI in the assay with UACC-257 melanoma was 54 µM; with UACC-62 melanoma, 37.5 µM; in the assay on CCRF-CEM leukemia, above 100 µM; in the assay with MOLT-4 leukemia it was 80.8 µM; in the assay with ACHN renal, 67.5 µM; in the assay with K-562 leukemia, 90.6 µM.
Take `O=[N+]([O-])c1cccnc1N=Nc1c(O)[nH]c2ccccc12`: the TGI in the assay on UACC-257 melanoma was 44.6 µM; in the assay with HS 578T breast, above 100 µM; in the assay with UACC-62 melanoma, 23 µM; in the assay with MOLT-4 leukemia it was above 100 µM; in the assay with ACHN renal it was 36 µM; in the assay on MCF7 breast, 20.6 µM. In addition, the TGI with DU-145 prostate is 29.6 µM; with K-562 leukemia, above 100 µM.
In the case of `O=C1C=C(Nc2ccc(Cl)cc2C(=O)c2ccccc2)c2ccccc2C1=O`, the TGI in the assay on UACC-257 melanoma, in the assay on UACC-62 melanoma, in the assay with CCRF-CEM leukemia, in the assay with MOLT-4 leukemia, in the assay with ACHN renal and with K-562 leukemia was above 100 µM each time.
For `CN(C)CCNC(=O)Cc1ccccc1Nc1c(Cl)cccc1Cl`, the TGI in the assay with UACC-257 melanoma amounted to 29.1 µM; in the assay with UACC-62 melanoma, 33.3 µM; in the assay on CCRF-CEM leukemia, 34 µM; with MOLT-4 leukemia it was 36.7 µM; in the assay on ACHN renal it was 33.3 µM; in the assay on K-562 leukemia, 37.5 µM.
Regarding `COc1ccc(-c2c(C#N)c(N3CCOCC3)nc3[nH]c(=S)[nH]c(=S)c23)cc1OC`, the GI50 with UACC-257 melanoma was above 100 µM; in the assay with HS 578T breast, 47.3 µM; with UACC-62 melanoma, 20.1 µM; in the assay on CCRF-CEM leukemia, 41.3 µM; with MOLT-4 leukemia, 39.6 µM; in the assay on ACHN renal, 35.8 µM. For the same compound, the GI50 was 29.4 µM with MCF7 breast, 58.7 µM in the assay on DU-145 prostate and 36.7 µM with K-562 leukemia. For the same compound, the TGI is above 100 µM in the assay with UACC-257 melanoma; above 100 µM in the assay on HS 578T breast; 76.1 µM in the assay on UACC-62 melanoma; above 100 µM with CCRF-CEM leukemia; above 100 µM with MOLT-4 leukemia; above 100 µM with ACHN renal. Besides, the TGI in the assay with MCF7 breast, with DU-145 prostate and in the assay with K-562 leukemia was above 100 µM in each case.
In the case of `Nc1c(S(=O)(=O)c2ccc(Cl)cc2)c2nc3ccccc3nc2n2ccnc12`, the TGI with UACC-257 melanoma, in the assay on CCRF-CEM leukemia, with MOLT-4 leukemia, in the assay with ACHN renal and in the assay with K-562 leukemia was above 100 µM each time.
Regarding `CN1Nc2ccccc2CC1=O`, the TGI with UACC-257 melanoma, with UACC-62 melanoma, with CCRF-CEM leukemia, in the assay with ACHN renal and in the assay on K-562 leukemia was above 100 µM each time.
